# Laboratory results taken from patent EP1227795B1, “LIPID COMPLEX OF ALKYCYCLINES” (priority 1999, dated 2001).
# Assay: water solubility of the alkycycline
# Type: physicochemical
# Procedure: The alkycycline of formula Ia as defined above is quite water insoluble (less than 0.1 mg/ml). This makes it difficult to be formulated as a sterile, storage stable, dosage form. Additionally, the alkycycline is unstable: • after twelve months at 4°C the decomposition of the bulk product is about from 4 to 6%. This percentage of decomposition is absolutely not acceptable for a pharmaceutical product.
substance,measurement,value
4-demethoxy-3'-deamino-3'-aziridinyl-4'-methansulfonyl daunorubicin [Ia],water solubility,less than 0.1 mg/ml
